# Source: PubChem BioAssay AID1996
# Details: buffer; pH 7.4; 200.0 µM
row,solubility kinetic [µg/mL],SMILES
1,44.8,CCN1CCN(C(=S)NC(=O)/C=C/c2cccs2)CC1
2,> 37.3,Clc1ccc2c(N3CCOCC3)ccnc2c1
3,48.8,COCCNCC(=O)Nc1ccc(OC(F)(F)F)cc1.Cl
4,1.5,c1ccc(Nc2cccc3ccccc23)cc1
5,> 50.5,Cc1ccc2ncnc(Oc3ncccc3NC(=O)C(C)(C)C)c2c1
6,> 44.1,O=C(Cc1cccc(C(F)(F)F)c1)NCc1cccnc1
7,> 41.7,O=C(COC(=O)c1ccc(O)cc1)Nc1nccs1
8,9.3,COc1ccc(C(=O)O/N=C(\N)c2ccc(OC)c(OC)c2)cc1
9,2.3,CCOC(=O)c1c(CC(C)C)csc1/N=C/C1=C(O)CCCC1=O
10,11,CC(C)n1c(=S)[nH]c2cc(Cl)ccc21
11,> 50.3,Cc1ccc(NC(=O)CN(C)C(=O)Cc2c[nH]c3ccccc23)cc1
12,19.6,N#Cc1ccccc1CCN1C(=O)c2ccccc2C1=O
13,4.1,CN(C)S(=O)(=O)c1ccc(C(=O)Nc2ccc3nc(N4CCOCC4)sc3c2)cc1
14,1,Cc1ccc(C(=O)NC(C(=O)Nc2ccccc2)c2ccccc2)cc1 (stereo not given)
15,< 0.2,O=[N+]([O-])c1ccc(N2CCN(c3ccccc3)CC2)cc1
16,> 44.9,CCC/C(O)=C1\C(=O)CC(C)(C)CC1=NCc1ccccc1
17,> 47.3,CC(C)N1CC(C(=O)Nc2cc(Cl)cc(Cl)c2)CC1=O (stereo not given)
18,> 44.3,COc1cccc(OC)c1C(=O)OCC(=O)NCC(C)C
19,48.2,O=C(O)CCCC(=O)N1CCOCCOCCOCCOCC1
20,32,O=C(CCS(=O)(=O)c1ccccc1)OCc1ccc([N+](=O)[O-])cc1
21,37.9,C=CCN1C(=O)C2(OCCCO2)c2cccc(C)c21
22,34.6,CCn1cnc2c1c(=O)[nH]c(=O)n2Cc1ccccc1
23,> 39.5,CN(N)c1nc(N2CCCC2)nc(N2CCCC2)n1
24,23.4,CC(=O)c1c(C)[nH]c(C(=O)NCC2CCCCC2)c1C

row,solubility kinetic [µg/mL],SMILES
1,2.5,CC(=O)c1c(C)[nH]c(C(=O)CSc2ccc(F)cc2)c1C
2,48.8,COC(=O)CC1C(=O)NCCN1C(=O)Nc1cccc(Cl)c1 (stereo not given)
3,19.5,CN(C(=O)c1cccc(C(F)(F)F)c1)C1CCCc2ccccc21 (stereo not given)
4,42.1,COc1ccccc1NC(=O)NCC1CC1(Cl)Cl (stereo not given)
5,> 38.6,O=C(Nc1ncccn1)C12CC3CC(CC(C3)C1)C2
6,> 38.7,Cc1c(C(=O)c2ccccc2)c(=O)n(C)c(=O)n1C
7,52.4,O=C(COC(=O)c1ccc(O)cc1)Nc1ccc(S(=O)(=O)N2CCOCC2)cc1
8,> 49.2,O=C(CSc1cccc[n+]1[O-])Nc1ccccc1C(F)(F)F
9,1.4,O=C(Cc1ccc(F)cc1)Nc1nc(-c2ccc(F)c(F)c2)cs1
10,41.3,CCOC(=O)C1CCCN(CCSc2ccc(C)cc2)C1.Cl (stereo not given)
11,37.9,CCNC(=S)Nc1cccc(S(=O)(=O)NC2=NCCC2)c1
12,20.2,Cc1ccc(CONC(=O)c2ccc(C)cc2)cc1
13,7.1,COC(=O)c1cccnc1NC(=S)NC(C)C
14,45.4,Cc1cc[n+](CC(=O)Nc2ccccc2)cc1.[Br-]
15,7.5,Clc1ccccc1C1Nc2cccc3cccc(c23)N1
16,< 0.7,COc1cc(OC)c(C(=O)Nc2cccc3ccccc23)cc1OC
17,13.6,COc1ccc(C(=O)NCC(=O)OCCOc2ccc(Cl)cc2)cc1OC
18,> 57.6,COc1ccc(S(=O)(=O)NC(C)C(=O)NCc2ccncc2)cc1Cl (stereo not given)
19,> 41.8,C[C@H](NC(=O)c1ccco1)C(=O)NC1CCCCCC1
20,> 36.4,O=[N+]([O-])c1ccc(Cl)cc1N1CCOCC1
21,3.3,COc1ccc(OC)c(NC(=O)Nc2cnccn2)c1
22,32.4,CCN(CC)c1c([N+](=O)[O-])c(=O)n(CC)c2ccccc12
23,4.2,NC(=O)Nc1ccc(C(=O)OCC(=O)c2c[nH]c3ccccc23)cc1
24,23.3,CCCOc1ccccc1/C=C1/C(=O)ON=C1C

row,solubility kinetic [µg/mL],SMILES
1,> 46,CNC(=O)CSc1nnc(-c2ccc3c(c2)OCO3)n1C
2,7.3,O=C(Nc1cccc(S(=O)(=O)NC2=NCCC2)c1)c1ccc(C(F)(F)F)cc1
3,36.8,Cc1c2c(nc3ccccc13)CC(C)(C)CC2=O.Cl
4,7.5,Fc1ccc(N=c2ssnc2Cl)c(F)c1
5,> 43.9,COc1ccc(NC(=O)CC2(CC(=O)O)CCCC2)cn1
6,> 47.9,O=C(/C=C/C=C/c1ccccc1)CC1(O)C(=O)Nc2ccccc21 (stereo not given)
7,3.3,Cc1ccc(NC(=S)NC(=O)Cc2ccccc2)c(O)c1
8,9,Cc1ccc(NC(=O)CN(C)C(=O)c2ccc(Cl)c(S(=O)(=O)NCc3ccco3)c2)cc1
9,6.1,CC(C)c1nc(SCC(=O)NC2CCCC2)c2ccccc2n1
10,10.6,O=C(Nc1ccc2c(c1)OCO2)c1ccc([N+](=O)[O-])cc1[N+](=O)[O-]
11,> 52.1,COc1cc2ccccc2cc1C(=O)N1CCN(c2ccccn2)CC1
12,0.7,O=C(Nc1ccccc1F)c1cc(-c2ccco2)nc2ccccc12
13,> 45.8,Cc1ccc(C(=O)Nc2sc3c(c2C(=O)O)CCCC3)o1
14,6.3,Cn1c(-c2cccc(Br)c2)cnc1NCc1ccccc1O
15,21,CCN(CC)S(=O)(=O)c1ccc(/C=C/C(=O)OCC(=O)NC(=O)C2COc3ccccc3O2)cc1 (stereo not given)
16,3.7,COc1cc(-c2cc(C(=O)OCC(=O)NC3CC3)c3ccccc3n2)cc(OC)c1OC
17,> 60.6,O=C(COC(=O)c1ccccc1OCc1ccc(Cl)cc1)NCC1CCCO1 (stereo not given)
18,> 51.4,O=C(Cc1ccc(Cl)cc1)Nc1ccc(CN2CCCCC2)cc1
19,< 0.3,CSc1cc(-c2ccncc2)nc(-c2ccc(Cl)cc2)c1
20,28.3,O=S(=O)(NC1CC1)c1ccccc1
21,12.5,O=C1CSC2(N1)C1CC3CC(C1)CC2C3 (stereo not given)
22,> 38.4,CCCCOc1ccc(CN=C(N)N)cc1Cl
23,> 55.8,CC(=O)NNC(=O)c1[nH]c2ccc(Br)cc2c1-c1ccccc1
24,1.1,Cc1ccc2nc(-c3ccc(N)cc3)sc2c1

row,solubility kinetic [µg/mL],SMILES
1,57.2,CC1CC(C)CN(c2ccc(NS(=O)(=O)c3ccccc3)cc2C(=O)O)C1 (stereo not given)
2,> 57.1,Cc1ccccc1-c1nnc(SCC(=O)NC2CCS(=O)(=O)C2)n1C (stereo not given)
3,> 50,CC(C)NC(=O)NNC(=O)c1nn(-c2ccc(F)cc2)ccc1=O
4,29.7,CCc1ccccc1NC(=O)C1CCCC1
5,13.2,COc1ccccc1NC(=O)c1ccc2c(=O)n3c(nc2c1)CCC3
6,32.7,Cc1ccc(N=C2NC(=O)CS2)cc1C
7,> 70.2,Cc1cc(NC(=O)COC(=O)CNS(=O)(=O)c2c(F)cc(F)cc2Br)no1
8,> 28.7,CC(=O)NC(C)CCc1ccccc1 (stereo not given)
9,25.8,CCN(Cc1nc(-c2ccc(Cl)cc2)no1)CC1CCCO1 (stereo not given)
10,> 48.1,C[C@H](NC(=O)c1ccccc1Cl)C(=O)Nc1ccccc1F
11,25.1,O=S(=O)(c1cccc(C(F)(F)F)c1)N1CCN(c2cnccn2)CC1
12,> 40.3,CC(=O)N1CCN=C1SCc1cccc(Cl)c1
13,9.6,CC(=O)Nc1ccc(C(=O)COC(=O)c2cccs2)c(F)c1
14,> 47.7,O=C(NNC(=S)NC(=O)c1ccc(F)cc1)c1cccnc1
15,> 32.6,O=C(Cc1cccs1)Nc1ccccc1
16,25.5,CC(C)Oc1ccc(CNC(=O)Oc2ccccc2)cc1
17,13.6,CC(C)Cc1cc(C(=O)Nc2cccc(O)c2)no1
18,> 47.5,COc1ccc(CNC(=O)C2CC(=O)N(C3CCCC3)C2)cc1 (stereo not given)
19,7.7,Cc1nsc(Nc2ccccc2)c1C#N
20,> 47.6,O=C(O)CC(c1ccc(F)cc1F)N1Cc2ccccc2C1=O (stereo not given)
21,> 38.5,COc1ccc(Cl)cc1N1C(=N)SCC1=O
22,42.2,COc1ccccc1N1CCN(Cc2ccc(C(=O)O)cc2)CC1
23,> 57.4,CC1(C)CC2(CCO1)OC(=O)CC2C(=O)Nc1ccc(Cl)cc1[N+](=O)[O-] (stereo not given)
24,12.9,Cc1cc(N/C=C(\C#N)S(=O)(=O)c2ccc(Cl)cc2)nc(C)n1

row,solubility kinetic [µg/mL],SMILES
1,11.7,N#Cc1nc(COc2ccc(F)cc2)oc1N1CCCCC1
2,1.1,CSc1ncccc1C(=O)OCc1c(F)cccc1Cl
3,60.1,Cl.OCCN1CCN(CC/C=C2/c3ccccc3Sc3ccc(C(F)(F)F)cc32)CC1
4,7.2,O=C(NC1CCSc2ccccc21)c1c(F)cccc1Cl (stereo not given)
5,38.1,Cc1ccccc1N=C1NC(=O)/C(=C/c2cccnc2)S1
6,> 44.3,O=C(NCC1CCCO1)c1c(O)nc2sccn2c1=O (stereo not given)
7,0.5,COc1ccccc1Cn1c(=S)[nH]c2ccccc2c1=O
8,> 39.9,O=C(NCCc1cccs1)c1ccc(Cl)cc1
9,> 48.1,CC(=O)Nc1ccc(-c2cc(C(=O)O)c3ccc(C)cc3n2)cc1
10,7.9,CCCCC(=O)Nc1ccc(C(=O)N(CC)c2ccccc2C)cc1
11,45.5,O=C(O)CN1C(=O)C(=O)N(Cc2c(F)cccc2Cl)C1=O
12,1.4,Brc1ccc2c(c1)[C@H]1OCC[C@H]1[C@@H](c1cccs1)N2
13,0.3,CCOC(=O)c1ccc2ncc(-c3ccccc3)nc2c1
14,24.4,COC(=O)C(N)Cc1ccc(O)c(O)c1.Cl (stereo not given)
15,33.7,CC(=O)N1CCN=C1SCc1cccc(C)c1
16,38.9,O=C(/C=C/c1ccccc1Cl)NCCCn1ccnc1
17,> 58.9,COc1ccccc1CC(=O)N1CCN(S(=O)(=O)c2ccccc2F)CC1
18,1.2,O=C(NCCc1ccc(Cl)cc1)c1ccc2c(c1)OCO2
19,> 44.1,Cc1c(C(=O)O)c(=O)n(-c2ccccc2)n1-c1ccccc1
20,28.2,CC(C)c1cc(C(=O)O)c2ccccc2n1
21,1.2,N/C(=N\OC(=O)c1ccc(OCC(F)(F)F)nc1)c1ccc(Cl)cc1

row,SMILES,solubility kinetic [µg/mL]
1,Cc1c(C=O)c2ccccc2n1Cc1ccccc1,2.6
2,CCOc1ccc(CNCCN2CCCC2)cc1.O=C(O)C(=O)O,28.2
3,Cc1cccc(-n2c(-c3ccccc3)nc3ccccc3c2=O)n1,> 47
